Assay results: ChEMBL document CHEMBL1151212, “Ananosic acids B and C, two new 18(13-->12)-abeo-lanostane triterpenoids from Kadsura ananosma” (J Nat Prod, 2004)
≈ marks a conversion by molar mass, not a printed value.

Columns and labels:
HeLa = assay: Cytotoxicity against human HeLa cells assessed as cell viability; format: functional, cell-based
CCRF-CEM = assay: Cytotoxicity against human CCRF-CEM cells assessed as cell viability; format: functional, cell-based

Row | Structure (SMILES) | IC50 (HeLa) [µg/mL] | IC50 (CCRF-CEM) [µg/mL]
1 | C/C(=C/CC[C@@H](C)C1=C2C(C)C[C@H]3C(=CC[C@H]4C(C)(C)[C@H](O)CC[C@]34C)[C@]2(C)CC1)C(=O)O (stereo partly specified) [ANANOSIC ACID A] | 0.46 (≈ 1.01 µM) | 45.4 (≈ 99.8 µM)
2 | C=C1C[C@H]2C(=CC[C@H]3C(C)(C)[C@H](OC(C)=O)CC[C@]23C)[C@]2(C)CC[C@H]([C@H](C)CC/C=C(/C)C(=O)O)C12 (stereo partly specified) [ANANOSIC ACID B] | 0.54 (≈ 1.09 µM) | 49.6 (≈ 99.9 µM)
3 | C=C1C[C@H]2C(=CC[C@H]3C(C)(C)C(=O)CC[C@]23C)[C@]2(C)CC[C@H]([C@H](C)CC/C=C(/C)C(=O)O)C12 (stereo partly specified) [ANANOSIC ACID C] | 0.48 (≈ 1.06 µM) | 45.2 (≈ 99.9 µM)
